{"source": "patent US11110080B2", "about": "“Small molecule inhibitors of bacterial efflux pumps and methods of using same” (The Regents of the University of Colorado, a body Corporate, priority 2017, dated 2021)", "type_in_all_cases": "cell-based, Salmonella enterica serovar Typhimurium", "key": {"[1]": {"test_system": "S.Tm efflux pumps", "assay": "Hoechst 33342 accumulation assay", "description": "Efflux pumps (EPs) represent a key pathogen virulence strategy to protect against host antimicrobials as well as therapeutic antibiotics. […] To uncover putative EPMs within our collection of hits, 58 repurchased compounds were screened in a Hoechst accumulation assay. Bacteria were incubated with Hoechst 33342, a dye which fluoresces when bound to DNA.\nHoechst accumulation assays were performed essentially as described in the literature. Briefly, overnight Salmonella cultures were washed 3 times in PBS and diluted to an OD of 0.1 in PBS with 2.5 μM Hoechst 33342 in the presence of the indicated concentrations of compounds. Fluorescence was monitored on a Biotek Synergy 2 with a 360/40 nm excitation filter and 460/40 nm emission filter. The maximum Hoechst fluorescence over 60 minutes of incubation was normalized to the signal from the equivalent number of heat-killed bacteria, after subtraction of autofluroescent signal determined from compound incubated in the absence of bacteria. Curve fitting to determine EC50s was performed using GraphPad Prism."}, "[2]": {"test_system": "S.Tm", "assay": "Swimming assay in soft agar (proton motive force)", "conditions": "50 mM, 10 μl on disk (500×, 125×, ~62.5× the MIC for EPM30, EPM35, EPM43)", "description": "One way to inhibit efflux pumps is to disrupt the proton motive force, which is required for transport by some EPs. […] Bacteria were injected into the center of 0.25% agar plates, and 10 μl of compound was added to paper disks on the periphery. […] Also ampicillin and rifampicin were tested. We plotted the halo radius versus the concentration as the fold above the MIC (FIG. 9G). […] Next, it was determined whether PAβN inhibited swimming; PAβN is thought to disrupt membranes over long incubations. […] Finally, the EPMs at […] were tested (FIGS. 9D-F).\nSaturated overnight cultures were diluted to an OD600 of 0.01 in LB and 1 μL was injected into the center of low agar (0.25%) LB plates. Ten microliters of the indicated compounds were added to sterilized Whatman paper disks (diameter 0.7 cm) placed equidistant from the plate center."}, "[3]": {"test_system": "extracellular S.Tm grown in MHB broth", "assay": "Broth activity assay (growth / MIC in Mueller Hinton Broth)", "conditions": "Salmonella enterica, three Salmonella strains SL1344, MAR1, S10801", "description": "(§1) Overnight Salmonella cultures were washed 3 times in PBS and diluted to an OD of 0.01 in Mueller Hinton Broth in 96-well flat bottom plates. Compound was added using a pin tool (CyBio) or manually, yielding a final concentration of no more than 1% DMSO. Plates were grown at 37° C. shaking and OD600 was monitored using a BioTek Eon incubator shaker microplate absorbance reader. For experiments in defined media, bacteria were grown in M9 minimal media supplemented with 100 mM Tris pH 7.4, 0.35% glycerol, 0.002% histidine, 10 mM MgCl2, and 0.1% casamino acids. Where indicated, media was supplemented with 5 μg/ml polymyxin B or 0.2 mM H2O2. For experiments with LL-37, bacteria were grown in M9 minimal media supplemented with 0.4% dextrose, 0.004% histidine, 1 mM MgSO4, and 5 μg/ml LL-37. For checkerboard assays, MIC was defined as the concentration at which no growth was visually observed."}, "[4]": {"test_system": "S.Tm efflux pumps", "assay": "Nile Red efflux assay", "conditions": "20 minutes incubation in 75 μM"}, "[5]": {"test_system": "S.Tm wild-type SL1344, MAR1 and S10801", "assay": "microbe, parasite or virus in culture", "conditions": "MAR1 and S10801", "description": "Increased expression or function of efflux pumps often contributes to clinical multidrug resistance. Therefore, whether the EPMs re-sensitize two multidrug resistant strains of S.Tm to tetracycline was tested. Tetracycline is an antibiotic exported by AcrAB. The MAR1 strain is derived from wild-type SL1344 was selected by exposure to tetracycline, and has increased expression of the AcrAB efflux pump. S10801 is an MDR strain isolated from the mesenteric lymph node of a septic calf and is resistant to tetracycline, ampicillin, chloramphenicol, nalidixic acid, and triple sulfa. The basis of multi-drug resistance in this strain is unknown.\nas §1"}, "[6]": {"test_system": "S.Tm efflux pumps", "assay": "Nile Red efflux assay", "source_text": "Because Hoechst and other dyes commonly used to assess efflux bind cellular components, direct measurement of efflux is not possible using these methods; instead, the Hoechst assay measures dye accumulation, the net result of entry and efflux. Further, the slow off-rate of Hoechst entails that efflux pumps have no effect on dye already bound to DNA. As a result, compounds which increase Hoechst accumulation may actually enhance dye entry by altering porins or disrupting the membrane. To more specifically measure efflux pump activity, a second technique was employed using the dye Nile Red, a lipophilic membrane-partitioning dye which fluoresces in nonpolar environments. Because Nile Red is not known to bind cellular components, to directly observe efflux cells were preloaded with the dye in the absence of glucose to reduce efflux pump activity (FIG. 7A). Upon addition of glucose, bacteria rapidly effluxed Nile Red and fluorescence returned to baseline levels (FIG. 7B, top panel). […] The initial measured fluorescence was lower for DMSO-treated cells (upper dotted line) than for PAβN-treated cells due to glucose-independent efflux during sample preparation (FIG. 8A). Next, it was determined whether efflux pump activity is restored after removal of PAβN. Bacteria were incubated with compound for 15 minutes, pelleted and resuspended in buffer lacking compound, and then stimulated with glucose (FIGS. 7C, 7E).\nNile Red assays were adapted from an established protocol. Briefly, overnight Salmonella cultures were grown in Mueller-Hinton cation-adjusted broth (Sigma), washed, and resuspended at an OD600 of 2.0. Cells were incubated in 10 μM Nile Red for 3 hours at 37° C. with aeration, then moved to room temperature for 1 hour. After pelleting at 2000× g, dye-loaded cells were aliquoted and combined with compound at the indicated concentrations. Two hundred microliters was loaded into 96-well black walled plates (Greiner) and read using a Varioskan Flash Multimode Reader with 540 nm excitation and 625 nm emission filters. We observed that during loading into plates (˜20 minutes), bacteria were able to efflux Nile Red even in the absence of glucose (FIG. 8A). To activate efflux, glucose was added to a final concentration of 2 mM. In some experiments, bacteria were treated with drug for 15 minutes, pelleted at 16,000×g, resuspended in fresh buffer, and stimulated with 2 mM glucose. All wash and incubation steps were performed in PBS with 1 mM MgCl2; incubations were performed in glass tubes to reduce adhesion of Nile Red."}}, "note": "“Also recorded” adds a separate entry of the source."}
{"smiles": "CC(C)c1nc(NC(=N)N)sc1Br", "note": "[EPM30]", "values": [{"measurement": "Hoechst assay EC50 relative to PAβN", "setting": "[1]", "value": "lower than that of PAβN"}, {"measurement": "Hoechst accumulation / fluorescence", "setting": "[1]; wild-type S.Tm, 60 minutes", "value": "increased S.Tm accumulation of Hoechst in a dose-dependent manner; also recorded: fluorescence comparable to that of PAβN"}, {"measurement": "halo in swimming assay", "setting": "[2]", "value": "formed a halo"}, {"measurement": "MIC", "setting": "[3]", "value": 100, "unit": "µM"}, {"measurement": "bacterial integrity and viability", "setting": "[4]", "value": "remain intact and viable"}, {"measurement": "sensitivity of MDR S.Tm to tetracycline", "setting": "[5]", "value": "not"}, {"measurement": "glucose-activated efflux of Nile Red", "setting": "[6]; 75 μM", "value": "fully inhibited efflux"}, {"measurement": "Nile Red efflux after washout of compound", "setting": "[6]; 15 minutes with compound, washed, then glucose", "value": "partially restored efflux; also recorded: partially restored Nile Red export"}, {"measurement": "Nile Red fluorescence in the absence of glucose (basal loss)", "setting": "[6]; no glucose", "value": "immediate reduction in fluorescence"}]}
